# Test system: IL-17 production, human PBMC cells
# Experiment: IL-17 production assay using human PBMC
# Type: cell-based
# Conditions: Homo sapiens, PBMC, 72 h, human PBMC stimulated by cytostim for 3 days, IL-17 ELISA of supernatant
# From the text: Test Example 2. IL-17 Production Assay Using Human PBMC
# • 1. Human PBMC cells (Cat No. 70025.1, Zenbio) • 2. Lymphocyte medium (Cat No. LYMPH-1, Zenbio) • 3. TexMACS (Cat No. 130-097-196, Miltenyi) • 4. Cytostim-human (Cat No. 1130-092-173, Miltenyi) • 5. Human IL-17 ELISA (Cat No. D1700, R&D systems) • 6. Tecan Infinite M1000 plate reader (Tecan)
# Experimental Procedure for IL-17 Production Assay
# Cryopreserved peripheral blood human mononuclear cells (PBMCs) were rapidly thawed in warmed Lymphocyte media, and centrifuged cell suspension at 1000 rpm for 10 minutes. The supernatant was removed, and the cell pellets were gently resuspended in TexMACS media.
# Human PBMC cells in TexMACS media were plated at 1×10^5 each well in triplicate. The test compounds at various concentrations or vehicle control (<0.5% DMSO) were added into cell culture. The cells were stimulated by cytostim (10 μL/mL) for 3 days in a humidified, 5% CO2 incubator at 37° C.
# After incubation, the cell culture supernatant was harvested, and then removed particulates by centrifugation. Human IL-17 in the supernatant was measured using human IL-17 ELISA kit according to the manufacturer's protocol. IC50 values were determined using GraphPad Prism by plotting the compounds concentration versus percent inhibition.
row,Structure (SMILES),IC50 [µM]
1,"O=S(=O)(CC1CC1)c1ccc(C(CCO)c2nc3cc(Cl)c(N4CCC(F)(F)CC4)c(Cl)c3[nH]2)cc1 (single isomer, unassigned) [3-(4-((cyclopropylmethyl)sulfonyl)phenyl)-3-(5,7-dichloro-6-(4,4-difluoropiperidin-1-yl)-1H-benzo[d]imidazol-2-yl)propan-1-ol]",0.006
2,"O=S(=O)(CC1CC1)c1ccc(C(CCN2CCOCC2)c2nc3cc(-c4ccccc4OC(F)F)c(Cl)cc3[nH]2)cc1 (single isomer, unassigned) [164 or 165 made from Int-164A, (R or S)-4-(3-(6-chloro-5-(2-(difluoromethoxy)phenyl)-1H-benzo[d]imidazol-2-yl)-3-(4-((cyclopropylmethyl)sulfonyl)phenyl)propyl)morpholine]",0.28

# Same assay, conditions: human PBMC stimulated by cytostim for 3 days, IL-17 ELISA of supernatant
row,Structure (SMILES),IC50 [µM]
1,"O=S(=O)(CC1CC1)c1ccc(C(CCN2CCOCC2)c2nc3cc(-c4ccccc4OC(F)F)c(Cl)cc3[nH]2)cc1 (single isomer, unassigned) [164 or 165 made from Int-164B, (R or S)-4-(3-(6-chloro-5-(2-(difluoromethoxy)phenyl)-1H-benzo[d]imidazol-2-yl)-3-(4-((cyclopropylmethyl)sulfonyl)phenyl)propyl)morpholine]",0.35
2,"CCS(=O)(=O)c1ccc(C(CCO)c2nc3c(Cl)c(N4CCC(F)(F)CC4)c(Cl)cc3[nH]2)cc1 (single isomer, unassigned) [the shorter retention time of 139 and 140] [3-(4,6-dichloro-5-(4,4-difluoropiperidin-1-yl)-1H-benzo[d]imidazol-2-yl)-3-(4-(ethylsulfonyl)phenyl)propan-1-ol]",0.214
3,"CCS(=O)(=O)c1ccc(C(CC(N)=O)c2nc3c(Cl)c(N4CCC(F)(F)CC4)c(Cl)cc3[nH]2)cc1 (single isomer, unassigned) [the shorter retention time of 146 and 147] [3-(4,6-dichloro-5-(4,4-difluoropiperidin-1-yl)-1H-benzo[d]imidazol-2-yl)-3-(4-(ethylsulfonyl)phenyl)propanamide]",0.315
4,"CC(C)Oc1ccccc1-c1cc2nc(C(CC(N)=O)c3ccc(S(=O)(=O)CC4CC4)cc3)[nH]c2cc1Cl (single isomer, unassigned) [the shorter retention time of 148 and 149] [3-(6-chloro-5-(2-isopropoxyphenyl)-1H-benzo[d]imidazol-2-yl)-3-(4-((cyclopropylmethyl)sulfonyl)phenyl)propanamide]",0.555
5,"CC(C)Oc1ccccc1-c1cc2nc(C(CCO)c3ccc(S(=O)(=O)CC4CC4)cc3)[nH]c2cc1Cl (single isomer, unassigned) [the shorter retention time of 150 and 151] [3-(6-chloro-5-(2-isopropoxyphenyl)-1H-benzo[d]imidazol-2-yl)-3-(4-((cyclopropylmethyl)sulfonyl)phenyl)propan-1-ol]",0.718
6,"NC(=O)CC(c1ccc(S(=O)(=O)CC2CC2)cc1)c1nc2cc(-c3ccccc3OC(F)F)c(Cl)cc2[nH]1 (single isomer, unassigned) [the shorter retention time of 152 and 153] [3-(6-chloro-5-(2-(difluoromethoxy)phenyl)-1H-benzo[d]imidazol-2-yl)-3-(4-((cyclopropylmethyl)sulfonyl)phenyl)propanamide]",0.86
7,"O=S(=O)(CC1CC1)c1ccc(C(CCO)c2nc3cc(-c4ccccc4OC(F)F)c(Cl)cc3[nH]2)cc1 (single isomer, unassigned) [the shorter retention time of 155 and 156] [3-(6-chloro-5-(2-(difluoromethoxy)phenyl)-1H-benzo[d]imidazol-2-yl)-3-(4-((cyclopropylmethyl)sulfonyl)phenyl)propan-1-ol]",0.135
8,"NC(=O)CC(c1ccc(S(=O)(=O)CC2CC2)cc1)c1nc2cc(Cl)c(N3CCC(F)(F)CC3)c(Cl)c2[nH]1 (single isomer, unassigned) [the shorter retention time of 162 and 163] [3-(4-((cyclopropylmethyl)sulfonyl)phenyl)-3-(5,7-dichloro-6-(4,4-difluoropiperidin-1-yl)-1H-benzo[d]imidazol-2-yl)propanamide]",0.069

# Target: T1, RORγ LBD-GST tagged (Homo sapiens, UniProt P51449)
# T1 construct: RORγ LBD-GST tagged (Cat No. RORC-114H, Creative Biomart); purchased Creative Biomart RORC-114H
# T1 sequence (P51449 269-508 limits assumed): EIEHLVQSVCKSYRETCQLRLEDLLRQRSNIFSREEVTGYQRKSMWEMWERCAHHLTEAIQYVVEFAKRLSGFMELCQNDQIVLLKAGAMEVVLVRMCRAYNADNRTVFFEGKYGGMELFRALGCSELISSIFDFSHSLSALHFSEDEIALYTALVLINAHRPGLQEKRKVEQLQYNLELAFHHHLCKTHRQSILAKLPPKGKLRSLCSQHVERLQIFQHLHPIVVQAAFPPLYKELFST
# Experiment: LanthaScreen TR-FRET RORγ coactivator assay
# Type: biochemical
# Conditions: Fluorescein-D22 coactivator peptide, 1 hour room temperature
# Summary of the method: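 GST-tagged RORγ LBD (25 ng/reaction) was incubated in coregulator buffer D with 5 mM DTT and compound (top 3 μM, 7-fold steps, 7 doses), then with a mix containing 0.6 μM fluorescein-D22 peptide and 8 nM Tb anti-GST antibody. After 1 h at room temperature in the dark, 520/495 nm TR-FRET was read. IC50 came from log concentration versus percent inhibition.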
row,Structure (SMILES),IC50 [µM]
1,"O=S(=O)(CC1CC1)c1ccc(C(CCN2CCOCC2)c2nc3cc(-c4ccccc4OC(F)F)c(Cl)cc3[nH]2)cc1 (single isomer, unassigned) [164 or 165 made from Int-164A, (R or S)-4-(3-(6-chloro-5-(2-(difluoromethoxy)phenyl)-1H-benzo[d]imidazol-2-yl)-3-(4-((cyclopropylmethyl)sulfonyl)phenyl)propyl)morpholine]",1.25
2,"CCS(=O)(=O)c1ccc(C(CO)c2nc3c(F)c(-c4ccccc4)c(F)cc3[nH]2)cc1 (centres unmarked) [Example 114, 2-(4,6-difluoro-5-phenyl-1H-benzo[d]imidazol-2-yl)-2-(4-(ethylsulfonyl)phenyl)ethanol]",0.564
3,"CCS(=O)(=O)c1ccc(Cc2nc3c(C)c(-c4ccccc4C(F)(F)F)c(C)cc3[nH]2)cc1 [Example 115, 2-(4-(ethylsulfonyl)benzyl)-4,6-dimethyl-5-(2-(trifluoromethyl)phenyl)-1H-benzo[d]imidazole]",0.171
4,"CCS(=O)(=O)c1ccc(C(O)c2nc3c(C)c(-c4ccccc4OC)c(C)cc3[nH]2)cc1 (centres unmarked) [Example 118, (4-(ethylsulfonyl)phenyl)(5-(2-methoxyphenyl)-4,6-dimethyl-1H-benzo[d]imidazol-2-yl)methanol]",0.306

# Next, values leading:
row,IC50 [µM],Structure (SMILES)
1,0.003,"O=S(=O)(CC1CC1)c1ccc(C(CCO)c2nc3cc(Cl)c(N4CCC(F)(F)CC4)c(Cl)c3[nH]2)cc1 (single isomer, unassigned) [3-(4-((cyclopropylmethyl)sulfonyl)phenyl)-3-(5,7-dichloro-6-(4,4-difluoropiperidin-1-yl)-1H-benzo[d]imidazol-2-yl)propan-1-ol]"
2,0.418,"O=S(=O)(CC1CC1)c1ccc(C(CCN2CCOCC2)c2nc3cc(-c4ccccc4OC(F)F)c(Cl)cc3[nH]2)cc1 (single isomer, unassigned) [164 or 165 made from Int-164B, (R or S)-4-(3-(6-chloro-5-(2-(difluoromethoxy)phenyl)-1H-benzo[d]imidazol-2-yl)-3-(4-((cyclopropylmethyl)sulfonyl)phenyl)propyl)morpholine]"
3,0.076,"CCS(=O)(=O)c1ccc(C(CO)c2nc3c(F)c(-c4ccccc4F)c(F)cc3[nH]2)cc1 (centres unmarked) [Example 112, 2-(4,6-difluoro-5-(2-fluorophenyl)-1H-benzo[d]imidazol-2-yl)-2-(4-(ethylsulfonyl)phenyl)ethanol]"
4,0.18,"CCS(=O)(=O)c1ccc(C(O)c2nc3c(F)c(-c4ccccc4OC)c(F)cc3[nH]2)cc1 (centres unmarked) [Example 113, (4,6-difluoro-5-(2-methoxyphenyl)-1H-benzo[d]imidazol-2-yl)(4-(ethylsulfonyl)phenyl)methanol]"
5,0.235,"CCS(=O)(=O)c1ccc(C(CO)c2nc3c(C)c(-c4ccccc4C(F)(F)F)c(C)cc3[nH]2)cc1 (centres unmarked) [Example 116, 2-(4,6-dimethyl-5-(2-(trifluoromethyl)phenyl)-1H-benzo[d]imidazol-2-yl)-2-(4-(ethylsulfonyl)phenyl)ethanol]"
6,0.149,"CCS(=O)(=O)c1ccc(C(CO)c2nc3c(C)c(-c4ccccc4OC)c(C)cc3[nH]2)cc1 (centres unmarked) [Example 117, 2-(4-(ethylsulfonyl)phenyl)-2-(5-(2-methoxyphenyl)-4,6-dimethyl-1H-benzo[d]imidazol-2-yl)ethanol]"
7,0.321,"CCS(=O)(=O)c1ccc(C(CO)c2nc3cc(-c4ccccc4OC(F)(F)F)c(F)cc3[nH]2)cc1 (centres unmarked) [Example 120, 2-(4-(ethylsulfonyl)phenyl)-2-(6-fluoro-5-(2-(trifluoromethoxy)phenyl)-1H-benzo[d]imidazol-2-yl)ethanol]"
8,0.966,"CCS(=O)(=O)c1ccc(C(O)c2nc3cc(-c4ccccc4OC(F)(F)F)c(F)cc3[nH]2)cc1 (centres unmarked) [Example 121, (4-(ethylsulfonyl)phenyl)(6-fluoro-5-(2-(trifluoromethoxy)phenyl)-1H-benzo[d]imidazol-2-yl)methanol]"
9,0.049,"O=S(=O)(NC1CC1)c1ccc(Cc2nc3c(Cl)c(-c4ccccc4OC(F)(F)F)c(Cl)cc3[nH]2)cc1 [Example 122, N-cyclopropyl-4-((4,6-dichloro-5-(2-(trifluoromethoxy)phenyl)-1H-benzo[d]imidazol-2-yl)methyl)benzenesulfonamide]"

# — patent US12187684B2, “Benzimidazole derivatives as modulators of retinoid-related orphan receptor gamma (RORγ) and pharmaceutical use thereof” (Jiangsu Hengrui Medicine Co., Ltd., priority 2018, dated 2025)
